These results are taken from patent US9856288B2, “Tripeptide epoxyketone compound constructed by heterocycle and preparation method and use thereof” (ZHEJIANG UNIVERSITY, priority 2014, dated 2018).

Data set [1] deals with Human proteasome chymotrypsin-like protease (Homo sapiens, UniProt P28074). Briefly: Proteasome CT-L inhibition, fluorescent substrate Suc-Leu-Leu-Val-Tyr-AMC. The class given is biochemical. An excerpt: Experimental Method: By using a fluorescent substrate Suc-Leu-Leu-Val-Tyr-AMC to observe the inhibition of various compounds on activity of the enzyme, the inhibitory effect of the compounds was preliminarily evaluated. Human proteasome chymotrypsin-like protease may hydrolyze the sequence Tyr-AMC of the substrate to release AMC.

Data set [2] has as its system LP1. Description: MTT proliferation inhibition, LP1. The data set is classed as cell-based. The following applies: Homo sapiens, LP-1. As for the experimental part: (§1) […] of DMSO was added for dissolution.
(§2) The experimental method may be referred to Test Example 2, except that the cell strains of RPMI8226 and NCI-H929 were replaced with corresponding tumor cells.

For data set [3], the system named is MGC-803. Briefly: MTT proliferation inhibition, MGC-803. The class given is cell-based. The note with it: Homo sapiens. As for the experimental part:
as §1, §2

Data set [4] concerns HCT116. Briefly: MTT proliferation inhibition, HCT116. The data set is classed as cell-based. The following applies: Homo sapiens. As for the experimental part: as §1, §2
Data set [5] relates to PC-3. Briefly: MTT proliferation inhibition, PC-3. The data set is classed as cell-based. The following applies: Homo sapiens. As for the experimental part: as §1, §2
For data set [6], the system named is MCF-7. Description: MTT proliferation inhibition, MCF-7. The class given is cell-based. The following applies: Homo sapiens, MCF7. As for the experimental part: as §1, §2
A short description of data set [7]: MTT cell activity, BORT. The data set is classed as cell-based.
Protocol: (§3) Experimental Method: Cell viability was determined by MTT method preformed as follows. Cells grown at the logarithmic growth phase was digested with a 0.01% trypsin, counted, plated in a 96-cell plate at a cell density of 2.0*10^3/well for 100 ml, and cultured in a 5% CO2 incubator at a temperature of 37° C. overnight. For each of the compounds, a gradient of six concentrations were set, in triplicate for each concentration. […] 20 ml of 5 mg/ml MTT was added to each of the cells. After incubation at a temperature of 37° C. for 3 h, supernatant was removed by suction. 100 ml of DMSO was added for dissolution. Absorption at 550 nm (L1) was determined by using SpectraMAX 340 with a reference wavelength of 690 nm (L2). The values of (L1-L2) were plotted against various concentrations, and fitted into a formula to give IC50.
The subject of data set [8] is HELA. Briefly: MTT cell activity, HELA. The data set is classed as cell-based. The following applies: Homo sapiens.
The subject of data set [9] is K562. Description: MTT cell activity, K562. The data set is classed as cell-based. The following applies: Homo sapiens.
The test system of data set [10] is MM-1R. Description: MTT cell activity, MM-1R. The data set is classed as cell-based. The following applies: 100 nM.
Data set [11] relates to MM-1S. Briefly: MTT cell activity, MM-1S. The data set is classed as cell-based. The following applies: Homo sapiens, MM1.S; 100 nM.
Protocol: as §3
Data set [12] addresses proteasome PGPH active site (Homo sapiens, UniProt P28072). Briefly: Proteasome PGPH inhibition, substrate Z-Leu-Leu-Glu-AMC. The data set is classed as biochemical.
Data set [13] addresses proteasome T-L active site (Homo sapiens, UniProt Q99436). Description: Proteasome T-L inhibition, substrate Bz-Val-Gly-Arg-AMC. The data set is classed as biochemical.
The subject of data set [14] is subcutaneous xenograft of human myeloma RPMI 8226. Briefly: Growth inhibition of subcutaneous xenograft of human myeloma RPMI 8226 in NOD/SCID mice. The class given is in vivo. The following applies: for Tumor inhibition (%) / Tumor weight (g) mean ± SD: RPMI8226 xenograft NOD/SCID mice; for Tumor weight (g), single animals: individual mice. As for the experimental part: Experimental Method: Human myeloma RPMI8226 cell strain was inoculated subcutaneously at right flank of NOD/SCID mice with an inoculation quantity of 1×10^7 cells/mouse. After forming a xenograft, the experiment was started.
The diameters of subcutaneous xenografts of NOD/SCID mice were measured with a vernier caliper. After the tumor was grown to the size of 100-300 mm^3, the animals were grouped randomly. Equal volume of blank solvent was administered to the group of solvent control. During the experimentation, the diameters of subcutaneous xenografts were measured twice a week, and the mice were weighed at the same time.

Data set [15] in a line: MTT proliferation inhibition, RPMI8226.
Protocol: as §3
A short description of data set [16]: MTT proliferation inhibition, NCI-H929.
Protocol: as §3
Data set [17] deals with RPMI8226 cell. Briefly: MTT proliferation inhibition, RPMI8226. The note with it: Homo sapiens, RPMI-8226, 72 h, read-out: Cytotoxicity IC50 (nM) RPMI8226 cell.
Protocol: as §3
Data set [18] has as its system NCI-H929 cell. Briefly: MTT proliferation inhibition, NCI-H929. The following applies: Homo sapiens, NCI-H929, 72 h, read-out: Cytotoxicity IC50 (nM) NCI-H929 cell.
Protocol: as §3

Values joined by “and” are separate entries in the source; they are usually repeats but may differ in a detail not shown here. Equal entries are not always repeated. Where two headings read alike, the source gives them in different places.

`CC(C)C[C@H](NC(=O)N1CCC(C(=O)Nc2ccccn2)CC1)C(=O)N[C@@H](Cc1ccccc1)C(=O)N[C@@H](CC(C)C)C(=O)[C@@]1(C)CO1` [Compound 5k, 4-(pyridin-2-yl carbamoyl)piperidin-1-oyl-Leu-Phe-Leu-epoxy ketone]: the IC50 came out at 1.5 nM in data set [1]; 15.2 ± 2.82 nM in data set [2]; 3.72 ± 0.13 nM in [3]; 0.00572 ± 0.00072 µM in data set [4] (HCT-116, read-out: IC50 HCT116); 7.74 ± 0.77 µM in data set [5]; 0.42 ± 0.04 µM in data set [6]. Further, the concentration for half-maximal inhibition (IC50) in [12] (read-out: IC50 (nM) PGHP) was found to be 485 ± 26.1 nM; in [13], 3180 ± 47.2 nM; in data set [15] it was 2.5 nM; in data set [16], 15.3 nM. This compound showed an activity at 1 µM in [7] of 54.5 ± 2.13%. In addition, the activity at 10 µM in data set [8] came to 55.8 ± 3.53%; in [9], 55.6 ± 1.53%. Also, the activity at 0.1 µM turned out to be 88.2 ± 7.24% in data set [10] and 72.2 ± 3.19% in data set [11]. Also, the “PGHP (Fold/CT-L)” value in [12] (ratio of PGHP IC50 to CT-L IC50) was found to be 321.0. For the same compound, in [13] (ratio of T-L IC50 to CT-L IC50), the “T-L (Fold/CT-L)” value is reported as “(2107.0)”. In addition, in data set [14] (4 mg/kg), the “Tumor inhibition (%)” value is reported as 53.62%. Also, the “Tumor weight (g) mean ± SD” value in [14] (4 mg/kg) is reported as 0.59 ± 0.24 g. In addition, the “Tumor weight (g), single animals” value in data set [14] (4 mg/kg) was 0.20 g and 0.66 g and 0.44 g and 0.52 g and 0.72 g and 0.98 g.

In the case of `CC(C)C[C@H](NC(=O)N1CCN(C(=O)c2cnccn2)CC1)C(=O)N[C@@H](Cc1ccccc1)C(=O)N[C@@H](CC(C)C)C(=O)[C@@]1(C)CO1` [Compound 5c, 4-(pyrazin-2-oyl)piperazin-1-oyl-Leu-Phe-Leu-epoxy ketone], the IC50 turned out to be 90.8 nM in data set [1], 28.9 nM in data set [15] and 100 nM in [16].

Consider `CC(C)C[C@H](NC(=O)N1CCC(C(=O)Nc2cnccn2)CC1)C(=O)N[C@@H](Cc1ccccc1)C(=O)N[C@@H](CC(C)C)C(=O)C1(C)CS1` (stereo partly drawn) [Compound 5t, 4-(pyrazin-2-yl carbamoyl)piperidin-1-oyl-Leu-Phe-Leu-cyclothione], for which the IC50 in data set [15] and in data set [16] was above 1000 nM each time.

For the compound `CCN1CC1(C)C(=O)[C@H](CC(C)C)NC(=O)[C@H](Cc1ccccc1)NC(=O)[C@H](CC(C)C)NC(=O)N1CCC(C(=O)Nc2cnccn2)CC1` (stereo partly drawn) [Compound 5w, 4-(pyrazin-2-yl carbamoyl)piperidin-1-oyl-Leu-Phe-Leu-(N-ethyl aziridinone)], the IC50 in data set [15] and in [16] was above 1000 nM throughout.

With `CC(C)C[C@H](NC(=O)[C@H](Cc1ccccc1)NC(=O)c1cnccn1)B(O)O` [Bortezomib], in data set [14] (1 mg/kg), the “Tumor inhibition (%)” value was determined as 34.78%; the “Tumor weight (g) mean ± SD” value is 0.83 ± 0.25 g; the “Tumor weight (g), single animals” value is 1.21 g and 0.38 g and 0.92 g and 0.90 g and 0.74 g and 0.80 g. Besides, in data set [17], the 50% inhibitory concentration (IC50) was 1.8 nM. Also, in [18], the IC50 came out at 9.5 nM.

For the compound `CC(C)C[C@H](NC(=O)N1CCC(C(=O)Nc2ccc(F)cc2)CC1)C(=O)N[C@@H](Cc1ccccc1)C(=O)N[C@@H](CC(C)C)C(=O)C1(C)CS1` (stereo partly drawn) [Compound 5u, 4-(4-fluorophenyl carbamoyl)piperidin-1-oyl-Leu-Phe-Leu-cyclothione], the half-inhibitory concentration (IC50) in [15] and in data set [16] was above 1000 nM in each case.

As to `CC(C)C[C@H](NC(=O)N1CCC(C(=O)Nc2cnccn2)CC1)C(=O)N[C@@H](Cc1ccccc1)C(=O)N[C@@H](CC(C)C)C(=O)C1(C)CN1` (stereo partly drawn) [Compound 5v, 4-(pyrazin-2-yl carbamoyl)piperidin-1-oyl-Leu-Phe-Leu-aziridinone], the IC50 in data set [15] and in data set [16] was above 1000 nM each time.

With `CC(C)C[C@H](NC(=O)[C@H](CCc1ccccc1)NC(=O)CN1CCOCC1)C(=O)N[C@@H](Cc1ccccc1)C(=O)N[C@@H](CC(C)C)C(=O)[C@@]1(C)CO1` [Carfilzomib, reference compound], the concentration for half-maximal inhibition (IC50) in [2] turned out to be 22.7 ± 2.51 nM; in [3] it was 8.95 ± 0.12 nM; in data set [4] (HCT-116, MTT) it was 8.93 ± 1.44 µM; in [5], 24.2 ± 2.72 µM; in [6] it was 1.02 ± 0.07 µM; in data set [17], 3 nM. Moreover, the IC50 in data set [18] was determined as 28.8 nM. In data set [7], this compound gave an activity at 1 µM of 61.1 ± 2.49%. In addition, the activity at 10 µM in data set [8] was 61.2 ± 3.44%; in data set [9], 58.6 ± 1.04%. Further, the activity at 0.1 µM in data set [10] was found to be 92.2 ± 6.34%; in data set [11], 76.2 ± 1.36%. Besides, the “Tumor inhibition (%)” value in data set [14] (4 mg/kg) is 58.10%. In addition, the “Tumor weight (g) mean ± SD” value in [14] (4 mg/kg) stood at 0.53 ± 0.21 g. The “Tumor weight (g), single animals” value in data set [14] (4 mg/kg) is 0.57 g and 0.38 g and 0.32 g and 0.85 g.

The IC50 is the point on the concentration scale where inhibition reaches its midpoint.
